ChEMBL document CHEMBL2034926, “Design, synthesis, and biological action of 20R-hydroxyvitamin D3” (J Med Chem, 2012)
Calls of active or inactive are those of the source. The rule behind the calls is not given here.

How the values were obtained:
HEK293 = experiment: Stimulation of cell proliferation of NHEK cells at 0.1 nM incubated for 24 hrs by [3H]thymidine incorporation assay; type: functional, cell-based; details: Homo sapiens
[1] = target: T1, CYP11A1 (cholesterol side-chain cleavage enzyme, mitochondrial) (Bos taurus, UniProt P00189); experiment: Drug metabolism assessed as bovine CYP11A1-mediated compound metabolism after 2 mins incubation using compound loaded phospholipid vesicle by reverse phase HPLC; type: ADME; details: cattle, bovine CYP11A1 with compound-loaded phospholipid vesicles; read-out: Drug metabolism
T1 sequence (P00189 whole entry): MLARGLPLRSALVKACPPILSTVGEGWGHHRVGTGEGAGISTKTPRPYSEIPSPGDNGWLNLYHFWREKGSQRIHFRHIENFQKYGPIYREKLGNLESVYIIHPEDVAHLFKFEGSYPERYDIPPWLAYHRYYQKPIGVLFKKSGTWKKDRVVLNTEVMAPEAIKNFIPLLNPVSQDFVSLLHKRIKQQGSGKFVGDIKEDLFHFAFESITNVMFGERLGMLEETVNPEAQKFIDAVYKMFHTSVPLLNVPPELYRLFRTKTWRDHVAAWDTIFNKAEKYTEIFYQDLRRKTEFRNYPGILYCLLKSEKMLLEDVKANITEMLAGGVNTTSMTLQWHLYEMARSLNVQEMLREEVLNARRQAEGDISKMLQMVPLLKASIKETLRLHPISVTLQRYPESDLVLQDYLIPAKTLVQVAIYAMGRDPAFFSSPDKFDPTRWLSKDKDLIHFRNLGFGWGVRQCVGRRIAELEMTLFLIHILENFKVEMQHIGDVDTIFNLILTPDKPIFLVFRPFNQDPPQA

[2] = Antiproliferative activity against NHEK cells incubated for 24 hrs by [3H]thymidine incorporation assay; type: functional, cell-based; details: Homo sapiens
[3] = Antiproliferative activity against NHEK cells assessed as cell proliferation incubated for 24 hrs by [3H]thymidine incorporation assay relative to untreated control
HaCaT = experiment: Inhibition of colony formation of human HaCaT cells; type: functional, cell-based

Row | metabolised at 2 min [1] | SMILES | Activity (HEK293) | EC50 [2] | level, % of control [3] | inhibition (HaCaT)
1 | 58% | C=C1CC[C@H](O)C/C1=C/C=C1\CCC[C@@]2(C)[C@H]1CC[C@@H]2[C@](C)(O)CCCC(C)C | Active | 4.09 nM | <50% | 
2 | 13% | C=C1CC[C@H](O)C/C1=C/C=C1\CCC[C@@]2(C)[C@H]1CC[C@@H]2[C@@](C)(O)CCCC(C)C |  | 0.728 nM | <50% | Active
3 |  | C=C1CC[C@H](O)C/C1=C/C=C1\CCC[C@]2(C)[C@@H]([C@H](C)CCCC(C)(C)O)CC[C@@H]12 |  |  |  | inactive
4 |  | C=C1/C(=C\C=C2/CCC[C@]3(C)[C@@H]([C@H](C)CCCC(C)(C)O)CC[C@@H]23)C[C@@H](O)C[C@@H]1O |  |  |  | Active
